Test results as given in patent publication US12280052B2, “Compositions and methods for the treatment of adenomyosis and rectovaginal endometriosis” (ObsEva S.A., priority 2018, dated 2025).

Experiments:
human GnRH receptor = target: T1, human GnRH receptor (Homo sapiens, UniProt P30968); experiment: affinity for human GnRH receptor; assay type: binding; conditions: kind of constant not stated
T1 sequence (P30968 1-328): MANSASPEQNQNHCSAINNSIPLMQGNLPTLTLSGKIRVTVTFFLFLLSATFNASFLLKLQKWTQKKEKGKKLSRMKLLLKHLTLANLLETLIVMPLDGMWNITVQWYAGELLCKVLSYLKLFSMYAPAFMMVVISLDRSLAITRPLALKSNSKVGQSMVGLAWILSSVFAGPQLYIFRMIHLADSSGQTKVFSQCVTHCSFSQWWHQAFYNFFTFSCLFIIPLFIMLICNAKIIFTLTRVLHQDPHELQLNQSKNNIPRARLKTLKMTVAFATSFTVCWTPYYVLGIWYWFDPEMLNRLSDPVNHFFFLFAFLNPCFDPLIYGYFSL

[1] = system: human female patients suffering from adenomyosis; experiment: open-label Phase II clinical trial of compound (VI) in adenomyosis, representative patient; assay type: in vivo; conditions: for mB&B score: composite score 0-15, baseline 6.0 (Severe); for mB&B score / Change from baseline in EHP-30 score for control and powerlessness / Change from baseline in EHP-30 score for emotional well-being / Change from baseline in EHP-30 score for pain / Change from baseline in EHP-30 score for self-image / Change from baseline in EHP-30 score for social support / Change from baseline in global pelvic pain by NRS / Change from baseline in mB&B score / Change from baseline in uterine volume by MRI / Change from baseline in uterine volume by TVUS / Uterus height by TVUS / Uterus depth by TVUS / Uterus length by TVUS / mB&B score, severity class / EHP-30 Score: Pain (Questions 1-11 of EHP-30) / EHP-30 Score: Social Support (Questions 24-27 of EHP-30) / EHP-30 Score: Self-Image (Questions 28-30 of EHP-30) / EHP-30 Score: Emotional Well-being (Questions 18-23 of EHP-30) / EHP-30 Score: Control and Powerlessness (Questions 12-17 of EHP-30) / Global pelvic pain by numerical rating scale (NRS) / Patient Global Impression of Change since Baseline (PGIC) / Uterus volume by transvaginal ultrasound (TVUS) / Uterus volume by MRI: representative patient; for Uterus height by TVUS: baseline 5.6 cm; for Uterus depth by TVUS: baseline 6.5 cm; for Uterus length by TVUS: baseline 6.7 cm; for mB&B score, severity class: baseline Severe; for EHP-30 Score: Pain (Questions 1-11 of EHP-30): scale 0 (best) to 100 (worst health status), baseline 63.6; for EHP-30 Score: Social Support (Questions 24-27 of EHP-30) / EHP-30 Score: Self-Image (Questions 28-30 of EHP-30) / EHP-30 Score: Emotional Well-being (Questions 18-23 of EHP-30) / EHP-30 Score: Control and Powerlessness (Questions 12-17 of EHP-30): scale 0 (best) to 100 (worst); for EHP-30 Score: Social Support (Questions 24-27 of EHP-30): baseline 43.8; for EHP-30 Score: Self-Image (Questions 28-30 of EHP-30): baseline 50.0; for EHP-30 Score: Emotional Well-being (Questions 18-23 of EHP-30): baseline 66.7; for EHP-30 Score: Control and Powerlessness (Questions 12-17 of EHP-30): baseline 70.8; for Global pelvic pain by numerical rating scale (NRS): scale 0 (no pain) to 10 (worst pain imaginable), baseline 7; for Patient Global Impression of Change since Baseline (PGIC): scale 1 (Very much improved) to 7 (very much worse); for Uterus volume by transvaginal ultrasound (TVUS): volume = l × h × d × 0.523, baseline 128 cm^3; for Uterus volume by MRI: baseline 198
Text: This example describes the results of an open-label, Phase II clinical trial examining the safety and efficacy of the GnRH antagonist, compound (VI) (3-[2-fluoro-5-(2,3-difluoro-6-methoxybenzyloxy)4-methoxyphenyl]-2,4-dioxo-1,2,3,4-tetrahydrothieno [3,4d]pyrimidine-5-carboxylic acid), for treating human female patients suffering from adenomyosis. The study began with a 4-week patient screening period, followed by two consecutive 12-week treatment periods. During the first 12-week treatment period, patients were administered compound (VI) in a single daily dose of 200 mg. During the second 12-week treatment period, patients were administered compound (VI) in a single daily dose of 100 mg. Patients then entered a post-treatment follow-up period during which the effects of compound (VI) were further assessed.
The total duration of this study (from the screening visit to the end-of-study visit) was 40 weeks per subject. The study began with a 4-week screening period evaluating the symptoms of uterine adenomyosis and assessing the volume of each patient's adenomyosis-affected uterus by way of MRI. During this period, the patients received no study drug.
At the start of menstruation, the patients were administered 200 mg of compound (VI), once daily, in the form of the corresponding choline salt. The administration continued over the course of a 12-weel treatment period, referred to as the “initiation phase,” so as to maximize the effect of the treatment. After the first 12-week treatment period, the therapeutic effect of the GnRH antagonist was maintained by administering 100 mg of compound (VI), once daily, over the course of a second 12-week treatment period. This second treatment period was referred to as the “maintenance phase.”
At the end of the maintenance phase (at week 24), the patients entered a 12-week follow-up period without any active treatment.
The primary efficacy endpoint of this study was a change, from baseline to week 24, in volume of the adenomyosis-affected uterus, as measured by MRI. Secondary endpoints under investigation in this study were as follows: • Change from baseline to weeks 12 and 36 in volume of the uterus with adenomyosis measured by MRI • Change from baseline to weeks 12, 24 and 36 in volume of the uterus with adenomyosis measured by TVUS • Change from baseline to weeks 12, 24 and 36 in the largest thickness of the anterior and posterior part of the uterus myometrium (sagittal assessment) • Change from baseline to weeks 12, 24 and 36 in the largest diameter of the junctional zone of the uterine adenomyosis measured by MRI • Presence of blood spots on the MRI images • Change from baseline to weeks 12, 24 and 36 in uterus volume assessed at vaginal examination • Change from baseline to weeks 12, 24 and 36 in uterine tenderness assessed at vaginal examination • Change from baseline to weeks 12, 24 and 36 in dysmenorrhea, pelvic pain and dyspareunia according to the mB&B scale • Change from baseline to weeks 4, 8, 12, 16, 20, 24 and 36 for global pelvic pain assessed over the preceding 4-week period using a Numerical Rating Scale (NRS) with a monthly recall • Change from baseline to weeks 4, 8, 12, 16, 20, 24, 28, 32 and 36 in the mean monthly dyspareunia score defined as the mean of available daily dyspareunia scores over the preceding 4-week period assessed on the Verbal Rating Scale (VRS) dyspareunia scale and on a NRS • Change from baseline to weeks 4, 8, 12, 16, 20 and 24 fin the mean monthly dyschezia score defined as the mean of weekly dyschezia scores over the preceding 4-week period using a NRS • No uterine bleeding (or spotting only), during the 4-week period preceding weeks 4, 8, 12, 16, 20 and 24 using a simplified bleeding scale • Time to amenorrhea • Change from baseline to weeks 12, 24 and 36 in the Endometriosis Health Profile questionnaire (EHP-30) • Patient Global Impression of Change (PGIC) score at weeks 12, 24 and 36 Data Analysis and Statistics […]

[2] = week 24 (100 mg once daily after 12 weeks of 200 mg)

## COc1cc(F)c(-n2c(=O)[nH]c3csc(C(=O)O)c3c2=O)cc1OCc1c(OC)ccc(F)c1F [Compound (VI), 3-[2-fluoro-5-(2,3-difluoro-6-methoxybenzyloxy)4-methoxyphenyl]-2,4-dioxo-1,2,3,4-tetrahydrothieno [3,4d]pyrimidine-5-carboxylic acid]
Human GnRH receptor
  affinity for human GnRH receptor: 27.4 nM
[1]; 24 weeks of treatment, 200 mg then 100 mg once daily
  uterine volume, conclusion in words: sustained reduction in uterine volume
[1]; 24 weeks of treatment, 200 mg then 100 mg once daily, various metrics
  adenomyosis-associated pain, conclusion in words: substantial reduction in adenomyosis-associated pain
[1]; week 12 (200 mg once daily)
  mB&B score: 2.0
  Change from baseline in EHP-30 score for control and powerlessness: −70.8
  Change from baseline in EHP-30 score for emotional well-being: −66.7
  Change from baseline in EHP-30 score for pain: −63.6
  Change from baseline in EHP-30 score for self-image: −50.0
  Change from baseline in EHP-30 score for social support: −43.8
  Change from baseline in global pelvic pain by NRS: −7
  Change from baseline in mB&B score: −4
  Change from baseline in uterine volume by MRI: −114 cm^3
  Change from baseline in uterine volume by TVUS: −79 cm^3
  Uterus height by TVUS: 4.1 cm
  Uterus depth by TVUS: 5.0 cm
  Uterus length by TVUS: 4.5 cm
  mB&B score, severity class: Mild (Mild (1-2))
  EHP-30 Score: Pain (Questions 1-11 of EHP-30): 0.0
  EHP-30 Score: Social Support (Questions 24-27 of EHP-30): 0
  EHP-30 Score: Self-Image (Questions 28-30 of EHP-30): 0
  EHP-30 Score: Emotional Well-being (Questions 18-23 of EHP-30): 0
  EHP-30 Score: Control and Powerlessness (Questions 12-17 of EHP-30): 0
  Global pelvic pain by numerical rating scale (NRS): 0
  Patient Global Impression of Change since Baseline (PGIC): 1—Very
  Uterus volume by transvaginal ultrasound (TVUS): 48 cm^3
[1]; week 12 (end of initiation phase, 200 mg once daily as choline salt)
  Uterus volume by MRI: 84 cm^3
[1]; [2]
  mB&B score: 2.0
  Change from baseline in EHP-30 score for control and powerlessness: −70.8
  Change from baseline in EHP-30 score for emotional well-being: −66.7
  Change from baseline in EHP-30 score for pain: −56.8
  Change from baseline in EHP-30 score for self-image: −50.0
  Change from baseline in EHP-30 score for social support: −43.8
  Change from baseline in global pelvic pain by NRS: −6
  Change from baseline in mB&B score: −4
  Change from baseline in uterine volume by MRI: −123 cm^3
  Change from baseline in uterine volume by TVUS: −79 cm^3
  Uterus height by TVUS: 4.0 cm
  Uterus depth by TVUS: 5.0 cm
  Uterus length by TVUS: 4.6 cm
  mB&B score, severity class: Mild (Mild (1-2))
  EHP-30 Score: Pain (Questions 1-11 of EHP-30): 6.8
  EHP-30 Score: Social Support (Questions 24-27 of EHP-30): 0
  EHP-30 Score: Self-Image (Questions 28-30 of EHP-30): 0
  EHP-30 Score: Emotional Well-being (Questions 18-23 of EHP-30): 0
  EHP-30 Score: Control and Powerlessness (Questions 12-17 of EHP-30): 0
  Global pelvic pain by numerical rating scale (NRS): 1
  Patient Global Impression of Change since Baseline (PGIC): 1—Very
  Uterus volume by transvaginal ultrasound (TVUS): 48 cm^3
[1]; week 24 (end of maintenance phase, 100 mg once daily after 12 weeks of 200 mg)
  Uterus volume by MRI: 75 cm^3
